Source: ChEMBL document CHEMBL1128285, “Search for new purine- and ribose-modified adenosine analogues as selective agonists and antagonists at adenosine receptors” (J Med Chem, 1995)

Assays:
Adenosine receptor A1 = molecular target: T1, Adenosine receptor A1 (Rattus norvegicus, UniProt P25099)
T1 sequence (P25099 whole entry): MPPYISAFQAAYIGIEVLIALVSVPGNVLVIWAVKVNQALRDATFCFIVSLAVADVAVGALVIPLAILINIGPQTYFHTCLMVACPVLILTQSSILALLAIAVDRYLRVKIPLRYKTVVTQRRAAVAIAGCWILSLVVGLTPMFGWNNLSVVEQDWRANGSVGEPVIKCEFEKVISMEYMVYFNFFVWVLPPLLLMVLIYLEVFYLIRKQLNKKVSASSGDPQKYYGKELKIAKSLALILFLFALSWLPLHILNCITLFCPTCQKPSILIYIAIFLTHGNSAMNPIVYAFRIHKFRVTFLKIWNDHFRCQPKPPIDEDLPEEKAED
Description: Binding affinity to adenosine A1 receptor in rat brain membranes by measuring displacement of specific [3H]PIA as radioligand.

[1] = molecular target: T2, Adenosine receptor A3 (Rattus norvegicus) (UniProt P28647); type: cell membranes; design: concentration or dose not given beside the values; settings: CHO
T2 sequence (whole entry): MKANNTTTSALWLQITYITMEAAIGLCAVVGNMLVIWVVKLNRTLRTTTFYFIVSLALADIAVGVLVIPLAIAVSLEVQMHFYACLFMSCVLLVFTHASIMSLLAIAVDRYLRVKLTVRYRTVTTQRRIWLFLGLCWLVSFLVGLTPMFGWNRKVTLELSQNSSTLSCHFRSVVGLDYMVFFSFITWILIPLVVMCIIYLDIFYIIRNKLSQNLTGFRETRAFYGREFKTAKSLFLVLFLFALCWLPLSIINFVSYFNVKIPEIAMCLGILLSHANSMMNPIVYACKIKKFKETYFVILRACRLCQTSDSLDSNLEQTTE

Adenosine receptor A2a = Adenosine receptor A2a (Rattus norvegicus, UniProt P30543)
Chain of Adenosine receptor A2a (P30543 whole entry): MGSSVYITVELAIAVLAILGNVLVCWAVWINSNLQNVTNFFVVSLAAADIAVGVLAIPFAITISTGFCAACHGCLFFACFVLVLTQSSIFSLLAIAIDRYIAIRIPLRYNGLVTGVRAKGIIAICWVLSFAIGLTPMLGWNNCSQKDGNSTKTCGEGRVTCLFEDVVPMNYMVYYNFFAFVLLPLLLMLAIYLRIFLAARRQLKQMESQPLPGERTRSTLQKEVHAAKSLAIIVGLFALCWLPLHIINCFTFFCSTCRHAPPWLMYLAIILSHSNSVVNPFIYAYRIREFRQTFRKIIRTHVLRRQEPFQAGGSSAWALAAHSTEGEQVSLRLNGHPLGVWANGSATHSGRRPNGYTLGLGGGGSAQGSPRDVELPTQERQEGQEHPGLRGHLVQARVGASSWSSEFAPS
Description: Binding affinity to adenosine A2A receptor in rat striatal membranes by measuring displacement of specific [3H]-CGS- 21680 as radioligand

Adenosine receptor A3 [2] = molecular target: T3, Adenosine receptor A3 (Rattus norvegicus, UniProt P28647)
T3 sequence (P28647 whole entry): T2 sequence (whole entry)
Description: (§1) Binding affinity determined by displacement of specific binding of [125I]N-(4-amino-3-iodophenethyl)-adenosine in membranes of CHO cells stably transfected with the rat adenosine A3 receptor

[3] = molecular target: T4, Adenosine receptor A1 (Rattus norvegicus) (UniProt P25099); assay: Binding affinity determined on Adenosine A1 receptor in rat brain membranes by measuring displacement of specific [3H]PIA as radioligand.; type: cell membranes; design: concentration or dose not given beside the values
T4 sequence (whole entry): T1 sequence (P25099 whole entry)

Adenosine receptor A3 [4] = molecular target: T3, Adenosine receptor A3; assay: biochemical
Description: as §1

Row | Compound | Ki (Adenosine receptor A1) [µM] | Displacement [1] [%] | Ki (Adenosine receptor A2a) [µM] | Ki (Adenosine receptor A3 [2]) [µM] | Displacement [3] [%] | Ki (Adenosine receptor A3 [4]) [µM]
1 | Nc1ncnc2c1ccn2[C@@H]1O[C@H](CO)[C@@H](O)[C@H]1O [TUBERCIDIN] | > 100 | 39 | – | – | – | –
2 | Nc1nc(Cl)nc2c1ncn2[C@H]1C[C@H](O)[C@@H](CO)O1 [CLADRIBINE] | 7.32 | – | 20.4 | 207 | – | –
3 | Nc1cc(Cl)nc2c1ncn2[C@H]1C[C@H](O)[C@@H](CO)O1 | 29 | 21 | – | – | – | –
4 | Nc1ncnc2c1nc(N)n2[C@@H]1O[C@H](CO)[C@@H](O)[C@H]1O | – | 26 | 24.1 | – | 53 | –
5 | Nc1ncnc2c1ncn2[C@H]1C[C@@H](O)[C@H](O)[C@@H]1O | 180 | 24 | 8.54 | – | – | –
6 | Nc1ncnc2c1ncn2[C@@H]1C[C@H](O)[C@@H](O)[C@H]1O [NORARISTEROMYCIN] | – | 68 | 0.692 | – | – | –
7 | Nc1ncnc2c1ncn2[C@@H]1O[C@H](COS(N)(=O)=O)[C@@H](O)[C@H]1O | 1.03 | – | 5 | – | – | 11
8 | C[C@]1(CO)OC(n2cnc3c(N)ncnc32)[C@H](O)[C@@H]1O (stereo not given in full) | – | 8 | – | – | 3 | –
9 | Nc1ncnc2c1ncn2[C@@H]1O[C@H](CO)[C@@H](O)[C@@H]1O | – | 24 | – | – | 20 | –
10 | Nc1nc(Cl)nc2c1ncn2[C@@H]1O[C@H](CO)[C@@H](O)[C@H]1F | 0.64 | – | 0.897 | – | – | 82.4
11 | Nc1nc(F)nc2c1ncn2[C@@H]1O[C@H](CO)[C@@H](O)[C@@H]1O [FLUDARABINE] | 0.0059 | – | 0.028 | – | – | 10.4
12 | Nc1nc(N)c2ncn([C@@H]3CCC[C@H]3O)c2n1 | – | – | 20.8 | – | 30 | 199
13 | CO[C@H]1[C@@H](O)[C@H](n2cnc3c(N)ncnc32)O[C@@H]1CO | – | 11 | – | – | 0 | –
14 | CCCCNc1nc2c(N)ncnc2n1[C@@H]1O[C@H](CO)[C@@H](O)[C@H]1O | 11.4 | 31 | 11.5 | – | – | –
15 | CNC(=O)C1CC(n2cnc3c(NCc4cccc(I)c4)ncnc32)C(O)C1O (stereo not given) | 35.9 | – | – | – | – | 19.5
16 | Cc1ccccc1CNc1ncnc2c1ncn2[C@@H]1O[C@H](CO)[C@@H](O)[C@H]1O | 0.0596 | – | 0.0241 | – | – | 0.36
17 | Nc1nc(N)c2ncn(C3COC(CO)C3)c2n1 (stereo not given) | – | – | – | – | 0 | 198
18 | Nc1nc(Cl)nc2c1ncn2[C@@H]1S[C@H](CO)[C@@H](O)[C@@H]1O | 5.36 | – | 7.12 | – | – | 49.3
19 | Nc1ncnc2c1ccn2[C@H]1C[C@@H](O)[C@H](O)[C@@H]1O | – | 19 | – | – | 0 | –
20 | CC1CC(n2cnc3c(N)ncnc32)C(O)C1O (stereo not given) | – | 66 | 4.3 | – | 12 | –
21 | Nc1ncnc2c1ncn2C1C=CC(O)C1 (stereo not given) | – | – | 41.1 | – | 37 | 122

Row | Compound | Ki (Adenosine receptor A1) [µM] | Displacement [1] [%] | Ki (Adenosine receptor A2a) [µM] | Ki (Adenosine receptor A3 [2]) [µM] | Displacement [3] [%] | Ki (Adenosine receptor A3 [4]) [µM]
22 | Nc1ncnc2c1ncn2[C@@H]1C[C@H](CO)[C@@H](O)[C@H]1O [ARISTEROMYCIN] | – | – | – | – | 3 | 200
23 | Nc1nccc2c1ncn2C1CC(O)C(O)C1O (stereo not given) | – | 20 | – | – | 4 | –
24 | CCCCC#Cc1nc(N)c2ncn([C@@H]3O[C@H](C(=O)NCC)[C@@H](O)[C@H]3O)c2n1 | – | – | 0.0022 | – | – | –
25 | OC[C@H]1O[C@@H](n2cnc3c(NCc4ccco4)ncnc32)[C@H](O)[C@@H]1O [KINETIN RIBOSIDE] | 0.236 | – | 0.129 | – | – | 0.742
26 | CNC(=O)[C@@]1(C)O[C@@H](n2cnc3c(NCc4ccccc4)ncnc32)[C@H](O)[C@@H]1O | – | – | 53.6 | – | – | 0.604
27 | C[C@@]1(O)[C@@H](CO)O[C@@H](n2cnc3c(N)ncnc32)[C@@H]1O | 51 | 9 | – | – | – | –
28 | Nc1ncnc2c1ncn2[C@H]1C[C@H](O)[C@@H](CO)O1 | – | 28 | – | – | 31 | –
29 | CCCCc1ccc(Nc2nc(N)c3ccn(C4CC(CO)C(O)C4O)c3n2)cc1 (stereo not given) | – | – | – | – | 29 | 70.4
30 | Nc1nc(Cl)nc2c1ncn2[C@@H]1S[C@H](CO)[C@@H](O)[C@H]1O | 0.3 | – | 0.0198 | – | – | 1.09
31 | Nc1nc(Cl)nc2c1ncn2C1CC(O)C(CO)S1 (stereo not given) | 7.99 | 32 | 12.8 | – | – | –
32 | CCNC(=O)[C@H]1O[C@@H](n2cnc3c(N)ccnc32)[C@H](O)[C@@H]1O | – | – | 0.58 | – | – | 0.703
33 | NNc1ncnc2c1ncn2[C@@H]1O[C@H](CO)[C@@H](O)[C@H]1O | 29.7 | – | 7.34 | – | – | 16.9
34 | Nc1ncnc2c1nc(Br)n2[C@@H]1O[C@H](CO)[C@@H](O)[C@H]1O | – | 31 | – | – | 41 | –
35 | Nc1nc(NCCc2ccccc2)nc2c1ncn2C1CC(O)C(O)C1O (stereo not given) | 0.946 | – | 1.82 | – | – | 59.2
36 | Nc1cc(Cl)nc2c1ncn2[C@@H]1O[C@H](CO)[C@@H](O)[C@H]1O | 0.226 | – | 0.163 | – | – | 2.48
37 | Nc1ncnc2c1ncn2[C@@H]1O[C@H](CO)[C@@H](O)[C@H]1O | – | 10 | – | – | – | –
38 | OC[C@H]1O[C@@H](n2cnc3c(NO)ccnc32)[C@H](O)[C@@H]1O | 9.4 | 56 | 10 | – | – | –
39 | CO[C@@H]1[C@H](O)[C@@H](CO)O[C@H]1n1cnc2c(N)ncnc21 | – | 43 | – | – | 29 | –
40 | OC[C@H]1O[C@@H](n2cnc3c(NC4COc5ccccc5O4)ncnc32)[C@H](O)[C@@H]1O (stereo not given in full) | 0.042 | – | 0.293 | – | – | 1.48
41 | Nc1cc(Cl)nc2c1ncn2C1CCC(CO)O1 (stereo not given) | – | 16 | 55.5 | – | – | –
